31 compounds from ChEMBL document CHEMBL3044998, “Improgan-like Analgesics: A Family of Compounds Derived From Histamine Anatgonists” (Med Chem Res, 2004) can be followed below.

Data set [1] relates to Rattus norvegicus. The data set can be described thus: Antinociceptive activity in icv dosed Rattus norvegicus albino (rat) tus norvegicus Sprague-Dawley (rat) assessed as maximal increase in paw withdrawal latency after 5 to 10 min by hot plate test. To be noted: for Emax: Rattus norvegicus, Sprague-Dawley albino, central. Format: functional.
The test system of data set [2] is Rattus norvegicus. The experiment in a line: Antinociceptive activity in icv dosed Rattus norvegicus albino (rat) tus norvegicus Sprague-Dawley (rat) assessed as increase in thermal-stimulus induced tail flick latency after 5 to 10 min. To be noted: for Emax: Rattus norvegicus, Sprague-Dawley albino, Tail, central. In kind it is functional.
Data set [3] relates to Rattus norvegicus. The data set can be described thus: Neurotoxicity in icv dosed Rattus norvegicus albino (rat) tus norvegicus Sprague-Dawley (rat) assessed as motor impairment. To be noted: in vivo, icv_or_intrathecal. Format: toxicity, organism-based.
The subject of data set [4] is Rattus norvegicus. The data set can be described thus: Toxicity in icv dosed Rattus norvegicus albino (rat) tus norvegicus Sprague-Dawley (rat) assessed as behavioral changes. In kind it is organism-based. As to conditions: in vivo, icv_or_intrathecal.
The subject of data set [5] is Rattus norvegicus. The experiment in a line: Antinociceptive activity in icv dosed Rattus norvegicus albino (rat) tus norvegicus Sprague-Dawley (rat) assessed as increase in thermal-stimulus induced tail flick latency. As to conditions: TDE = time-dependent effect. In kind it is functional, organism-based.
The test system of data set [6] is Rattus norvegicus. The data set can be described thus: Antinociceptive activity in icv dosed Rattus norvegicus albino (rat) tus norvegicus Sprague-Dawley (rat) assessed as maximal increase in paw withdrawal latency by hot plate test. To be noted: TDE = time-dependent effect. In kind it is functional, organism-based.
In data set [7] the test system is Rattus norvegicus. The data set can be described thus: Neurotoxicity in Rattus norvegicus albino (rat) tus norvegicus Sprague-Dawley (rat) assessed as motor impairment at 20 to 60 ug, icv. Format: toxicity, organism-based. As to conditions: in vivo, icv_or_intrathecal.
For data set [8], the system named is Rattus norvegicus. The experiment in a line: Antinociceptive activity in Rattus norvegicus albino (rat) tus norvegicus Sprague-Dawley (rat) assessed as increase in thermal-stimulus induced tail flick latency at 20 to 60 ug, icv after 30 to 60 min. Format: functional, organism-based.
Data set [9] deals with Rattus norvegicus. The experiment in a line: Antinociceptive activity in Rattus norvegicus albino (rat) tus norvegicus Sprague-Dawley (rat) assessed as maximal increase in paw withdrawal latency at 20 to 60 ug, icv after 30 to 60 min by hot plate test. In kind it is functional, organism-based.
Data set [10] relates to Rattus norvegicus. The data set can be described thus: Toxicity in Rattus norvegicus albino (rat) tus norvegicus Sprague-Dawley (rat) assessed as behavioral changes at 20 to 60 ug, icv. Format: organism-based. To be noted: in vivo, icv_or_intrathecal.
For data set [11], the system named is Rattus norvegicus. The experiment in a line: Antinociceptive activity in Rattus norvegicus albino (rat) tus norvegicus Sprague-Dawley (rat) assessed as maximal increase in paw withdrawal latency at 20 to 60 ug, icv by hot plate test. Format: functional, organism-based. As to conditions: TDE = time-dependent effect.
Data set [12] has as its system Rattus norvegicus. The experiment in a line: Antinociceptive activity in Rattus norvegicus albino (rat) tus norvegicus Sprague-Dawley (rat) assessed as increase in thermal-stimulus induced tail flick latency at 20 to 60 ug, icv. In kind it is functional, organism-based. As to conditions: TDE = time-dependent effect.
The target in data set [13] is Histamine H3 receptor (Homo sapiens, UniProt Q9Y5N1). The experiment in a line: Binding affinity to histamine H3 receptor (unknown origin).
The target of data set [14] is Histamine H2 receptor (Homo sapiens, UniProt P25021). The data set can be described thus: Binding affinity to histamine H2 receptor (unknown origin).
For data set [15], the target named is Histamine H3 receptor (Cavia porcellus, UniProt Q9JI35). The data set can be described thus: Binding affinity to histamine H3 receptor in Cavia porcellus (guinea pig) ileum. Format: tissue-based.

Calls of active or inactive are those of the source. No cut-off for these calls is given here.

Sequence of Histamine H3 receptor (Homo sapiens, UniProt Q9Y5N1) (Q9Y5N1 whole entry): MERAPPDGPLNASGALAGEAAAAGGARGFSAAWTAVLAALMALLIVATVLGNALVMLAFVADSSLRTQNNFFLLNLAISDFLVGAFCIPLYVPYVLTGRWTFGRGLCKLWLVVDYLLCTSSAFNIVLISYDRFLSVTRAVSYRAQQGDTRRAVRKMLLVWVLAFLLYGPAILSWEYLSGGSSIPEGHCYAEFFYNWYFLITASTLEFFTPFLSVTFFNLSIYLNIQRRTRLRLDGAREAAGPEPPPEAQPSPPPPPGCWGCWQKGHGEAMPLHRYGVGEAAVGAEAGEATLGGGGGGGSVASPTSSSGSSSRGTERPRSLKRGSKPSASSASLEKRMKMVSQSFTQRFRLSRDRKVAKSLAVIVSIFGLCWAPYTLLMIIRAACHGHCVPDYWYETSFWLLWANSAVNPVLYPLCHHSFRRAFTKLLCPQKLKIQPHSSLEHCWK
Sequence of Histamine H3 receptor (Cavia porcellus, UniProt Q9JI35) (Q9JI35 whole entry): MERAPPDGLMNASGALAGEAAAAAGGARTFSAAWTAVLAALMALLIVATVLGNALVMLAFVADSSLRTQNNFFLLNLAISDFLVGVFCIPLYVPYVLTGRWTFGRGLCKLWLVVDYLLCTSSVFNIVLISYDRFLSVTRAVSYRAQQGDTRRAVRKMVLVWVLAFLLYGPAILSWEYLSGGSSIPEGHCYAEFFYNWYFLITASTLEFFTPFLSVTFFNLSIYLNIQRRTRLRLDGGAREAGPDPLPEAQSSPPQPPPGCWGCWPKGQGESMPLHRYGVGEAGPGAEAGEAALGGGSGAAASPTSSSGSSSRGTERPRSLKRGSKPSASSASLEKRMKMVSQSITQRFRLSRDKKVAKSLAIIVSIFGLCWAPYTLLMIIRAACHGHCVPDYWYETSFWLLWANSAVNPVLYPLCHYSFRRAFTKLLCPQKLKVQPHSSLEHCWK
Sequence of Histamine H2 receptor (P25021 whole entry): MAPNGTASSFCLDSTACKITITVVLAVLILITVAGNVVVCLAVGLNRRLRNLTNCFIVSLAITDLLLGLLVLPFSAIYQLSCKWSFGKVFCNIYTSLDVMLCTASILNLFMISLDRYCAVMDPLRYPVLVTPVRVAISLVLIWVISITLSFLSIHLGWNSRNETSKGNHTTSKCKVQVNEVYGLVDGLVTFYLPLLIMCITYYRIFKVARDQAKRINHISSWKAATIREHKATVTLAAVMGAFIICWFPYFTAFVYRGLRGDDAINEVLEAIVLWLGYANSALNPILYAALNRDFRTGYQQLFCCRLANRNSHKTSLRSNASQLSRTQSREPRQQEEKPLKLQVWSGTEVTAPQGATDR

For `c1ccc(NCCCOc2cccc(CN3CCCCC3)c2)cc1` [SKF95299], the ED50 in data set [1] and in data set [2] was >308 nmol each time.

For `S=C(NCCCCc1c[nH]cn1)NCc1ccccc1`, the ED50 in [1] and in data set [2] was 105 nmol each time.

For `CNC(=S)NCCSCc1[nH]cnc1C` [METIAMIDE], the ED50 in data set [1] and in [2] was 370 nmol each time.

As to `C/N=C(\S)NCCCc1c[nH]cn1` [NORBURIMAMIDE], the ED50 in [1] and in [2] was 217 nmol in each case.

With `S=C(NCCCCc1c[nH]cn1)NC1CCCCC1`, the ED50 in [1] and in [2] was 285 nmol each time.

Take `S=C(NCCc1c[nH]cn1)Nc1ccccc1`: the ED50 in [1] and in [2] was 89 nmol throughout.

For the compound `CN/C(=N/CCSCc1nc[nH]c1C)NC#N` [CIMETIDINE], the Activity result in [3] and in data set [4] was “Non-toxic” each time.

`C/N=C(\S)NCCCCc1c[nH]cn1` [BURIMAMIDE]: the Activity entry in data set [5] was “tde”; in data set [1] it was “Dose-dependent effect”; in [6] it was “tde”; in data set [2], “Dose-dependent effect”. The ED50 in [1] and in data set [2] was 184 nmol throughout.

`S=C(NCCCCCCc1c[nH]cn1)Nc1ccccc1`: the Emax in [1] and in data set [2] was < 100% in each case.

Turning to `CNC(=S)NCCSCc1ccc(CN(C)C)o1`, the Activity entry in data set [5] is “tde”; in data set [3], “Non-toxic”; in data set [6], “tde”; in data set [4] it was “Non-toxic”. In addition, the ED50 in [1] and in data set [2] was 117 nmol throughout.

`CN/C(=C/[N+](=O)[O-])NCCCn1ccnc1`: the Activity entry in data set [3] and in data set [4] was “Non-toxic” in each case.

Consider `c1cc(CN2CCCCC2)cc(OCCCNc2nc3ccccc3s2)c1` [ZOLANTIDINE], for which the ED50 in data set [1] and in [2] was >262 nmol throughout.

On to `S=C(Nc1ccccc1)N1CCC(c2c[nH]cn2)CC1`, for which the Emax in data set [1] and in data set [2] was < 100% in each case.

With `CN/C(=N\C#N)NCCSCc1ccc(CN(C)C)o1`, the Activity entry in data set [7] is “Non-toxic”; in data set [1], “Dose-dependent effect”; in [10], “Non-toxic”; in data set [2] it was “Dose-dependent effect”; in [11], “tde”; in data set [12] it was “tde”. In addition, the outcome in [8] and in data set [9] was inactive. The ED50 in data set [1] and in [2] was 67 nmol each time.

As for `CNC(=S)NCCCCc1cnc[nH]1` [BURIMAMIDE], the Activity entry in data set [3] and in data set [4] was “Non-toxic” in each case. Moreover, the Kd in data set [13] was 0.1 µM; in [14] it was 7.8 µM.

Regarding `CNC(=S)N1CCC(c2c[nH]cn2)CC1`, the ED50 in [1] and in data set [2] was 201 nmol throughout.

Consider `CN/C(=N\CCSCc1nc[nH]c1C)NC#N` [CIMETIDINE], for which the Activity entry was “tde” in data set [5], “Dose-dependent effect” in data set [1], “tde” in data set [6] and “Dose-dependent effect” in data set [2]. In addition, the ED50 in data set [1] and in [2] was 464 nmol each time.

In the case of `CN/C(=C\[N+](=O)[O-])NCCCCc1c[nH]cn1`, the ED50 in data set [1] and in data set [2] was 104 nmol each time.

As to `C/N=C(\S)NCCCn1ccnc1`, the ED50 in data set [1] and in data set [2] was >504 nmol in each case.

Take `CNC(=C[N+](=O)[O-])NCCSCc1ccc(CN(C)C)o1` [RANITIDINE]: the ED50 in [1] and in data set [2] was 109 nmol throughout.

In the case of `S=C(NCCCCc1c[nH]cn1)NCCc1ccccc1`, the ED50 in [1] and in [2] was 80 nmol throughout.

Take `NC(=NCc1ccc(Cl)cc1)SCCCc1cnc[nH]1` [CLOBENPROPIT]: the Activity entry in data set [3] and in data set [4] was “Non-toxic” throughout.

As for `C/N=C(\S)NCCCCCCc1c[nH]cn1`, the ED50 in data set [1] and in data set [2] was 87 nmol throughout.

Regarding `CN/C(=N\C#N)NCCSCc1ccccc1`, the ED50 in data set [1] and in data set [2] was >403 nmol in each case.

Take `CN/C(=N\C#N)NCCSCc1ccccn1`: the ED50 in data set [1] and in data set [2] was >602 nmol throughout.

In the case of `S=C(NCCCCc1c[nH]cn1)Nc1ccccc1`, the ED50 in data set [1] and in [2] was 81 nmol in each case.

For the compound `C/N=C(\S)NCCc1c[nH]cn1`, the ED50 in data set [1] and in [2] was 85 nmol each time.

As for `O=C(NCCCCc1c[nH]cn1)Nc1ccccc1`, the ED50 in [1] and in data set [2] was 65 nmol each time.

As for `S=C(NC1CCCCC1)N1CCC(c2cnc[nH]2)CC1` [THIOPERAMIDE], the ED50 in data set [1] and in [2] was >342 nmol in each case.

Regarding `CN/C(=N\C#N)NCCCc1c[nH]cn1` [IMPROGAN], the Activity entry in [5] is “tde”; in data set [3] it was “Non-toxic”; in data set [1] it was “Dose-dependent effect”; in [6], “tde”; in data set [2], “Dose-dependent effect”; in data set [4], “Non-toxic”. Moreover, the ED50 in data set [1] and in [2] was 330 nmol throughout. The compound also registered a Kd in data set [15] of 5 µM.

Regarding `C/N=C(/NC#N)NCCSCc1csc(NC(=N)N)n1` [TIOTIDINE], the ED50 in [1] and in data set [2] was >320 nmol in each case.
